{"source": "the CombiSolv-Exp solvation set (Vermeire and Green 2021)", "assay": "solvent given as SMILES"}
{"compound": "CCCc1ccccc1", "values": [{"measurement": "solvation free energy, 298 K", "setting": "in C1CCOC1", "value": -6.63, "unit": "kcal/mol"}, {"measurement": "solvation free energy, 298 K", "setting": "in CC#N", "value": -5.61, "unit": "kcal/mol"}, {"measurement": "solvation free energy, 298 K", "setting": "in CC(C)CC(C)(C)C", "value": -5.89, "unit": "kcal/mol"}, {"measurement": "solvation free energy, 298 K", "setting": "in CC(C)O", "value": -5.41, "unit": "kcal/mol"}, {"measurement": "solvation free energy, 298 K", "setting": "in CCCCCC", "value": -5.55, "unit": "kcal/mol"}, {"measurement": "solvation free energy, 298 K", "setting": "in CCCCCCC", "value": -5.92, "unit": "kcal/mol"}, {"measurement": "solvation free energy, 298 K", "setting": "in CCCCCCCCCC", "value": -5.23, "unit": "kcal/mol"}, {"measurement": "solvation free energy, 298 K", "setting": "in CCCCCCCCCCCCCCCC", "value": -5.76, "unit": "kcal/mol"}, {"measurement": "solvation free energy, 298 K", "setting": "in CCCCCCCCO", "value": -5.58, "unit": "kcal/mol"}, {"measurement": "solvation free energy, 298 K", "setting": "in CO", "value": -5.31, "unit": "kcal/mol"}, {"measurement": "solvation free energy, 298 K", "setting": "in NC=O", "value": -3.49, "unit": "kcal/mol"}, {"measurement": "solvation free energy, 298 K", "setting": "in O", "value": -0.56, "unit": "kcal/mol"}, {"measurement": "solvation free energy, 298 K", "setting": "in OCCO", "value": -3.65, "unit": "kcal/mol"}, {"measurement": "solvation free energy, 298 K", "setting": "in OCCOCCO", "value": -4.55, "unit": "kcal/mol"}, {"measurement": "solvation free energy, 298 K", "setting": "in OCCOCCOCCO", "value": -4.69, "unit": "kcal/mol"}]}
{"compound": "CCCCCCOC(C)=O", "values": [{"measurement": "solvation free energy, 298 K", "setting": "in CCCCCCCCCCCCCCCC", "value": -5.94, "unit": "kcal/mol"}, {"measurement": "solvation free energy, 298 K", "setting": "in CCCCCCCCO", "value": -6.26, "unit": "kcal/mol"}, {"measurement": "solvation free energy, 298 K", "setting": "in NC=O", "value": -4.6, "unit": "kcal/mol"}, {"measurement": "solvation free energy, 298 K", "setting": "in O", "value": -2.29, "unit": "kcal/mol"}, {"measurement": "solvation free energy, 298 K", "setting": "in [2H]O[2H]", "value": -2.44, "unit": "kcal/mol"}]}
{"compound": "O=C(OC1CCCCC1)c1ccccc1C(=O)OC1CCCCC1", "values": [{"measurement": "solvation free energy, 298 K", "setting": "in O", "value": -9.07, "unit": "kcal/mol"}]}
{"compound": "C=CCC(C)C", "values": [{"measurement": "solvation free energy, 298 K", "setting": "in C=CCCCCCCCCCCCCCC", "value": -3.23, "unit": "kcal/mol"}, {"measurement": "solvation free energy, 298 K", "setting": "in O", "value": 1.9, "unit": "kcal/mol"}]}
{"compound": "CCCC(O)CC", "note": "(configuration not stated)", "values": [{"measurement": "solvation free energy, 298 K", "setting": "in O", "value": -4.06, "unit": "kcal/mol"}]}
{"compound": "CCCCCCCCCCO", "values": [{"measurement": "solvation free energy, 298 K", "setting": "in CC(C)O", "value": -9.77, "unit": "kcal/mol"}, {"measurement": "solvation free energy, 298 K", "setting": "in CCCCCC", "value": -7.69, "unit": "kcal/mol"}, {"measurement": "solvation free energy, 298 K", "setting": "in CCCCCCCC", "value": -7.87, "unit": "kcal/mol"}, {"measurement": "solvation free energy, 298 K", "setting": "in CCCCCCCCCO", "value": -9.64, "unit": "kcal/mol"}, {"measurement": "solvation free energy, 298 K", "setting": "in CCCO", "value": -9.73, "unit": "kcal/mol"}, {"measurement": "solvation free energy, 298 K", "setting": "in O", "value": -3.69, "unit": "kcal/mol"}]}
{"compound": "COC(=O)c1cccc([N+](=O)[O-])c1", "values": [{"measurement": "solvation free energy, 298 K", "setting": "in CN(C)C=O", "value": -10.8, "unit": "kcal/mol"}, {"measurement": "solvation free energy, 298 K", "setting": "in O", "value": -6.79, "unit": "kcal/mol"}]}
{"compound": "CC(=O)CC(=O)c1cccs1", "values": [{"measurement": "solvation free energy, 298 K", "setting": "in O", "value": -6.08, "unit": "kcal/mol"}]}
{"compound": "Oc1ccccc1Cl", "values": [{"measurement": "solvation free energy, 298 K", "setting": "in CC(C)CC(C)(C)C", "value": -5.44, "unit": "kcal/mol"}, {"measurement": "solvation free energy, 298 K", "setting": "in CCCCCC", "value": -5.72, "unit": "kcal/mol"}, {"measurement": "solvation free energy, 298 K", "setting": "in CCCCCCC", "value": -5.71, "unit": "kcal/mol"}, {"measurement": "solvation free energy, 298 K", "setting": "in CCCCCCCC", "value": -5.67, "unit": "kcal/mol"}, {"measurement": "solvation free energy, 298 K", "setting": "in CCCCCCCCCC", "value": -5.63, "unit": "kcal/mol"}, {"measurement": "solvation free energy, 298 K", "setting": "in Cc1ccc(C)cc1", "value": -6.37, "unit": "kcal/mol"}, {"measurement": "solvation free energy, 298 K", "setting": "in Cc1cccc(C)c1", "value": -6.42, "unit": "kcal/mol"}, {"measurement": "solvation free energy, 298 K", "setting": "in Cc1ccccc1C", "value": -6.41, "unit": "kcal/mol"}, {"measurement": "solvation free energy, 298 K", "setting": "in O", "value": -4.56, "unit": "kcal/mol"}]}
{"compound": "CCCCCCCCCCCCCCCCO", "values": [{"measurement": "solvation free energy, 298 K", "setting": "in CC(C)O", "value": -13.7, "unit": "kcal/mol"}, {"measurement": "solvation free energy, 298 K", "setting": "in CCC(C)=O", "value": -13.8, "unit": "kcal/mol"}, {"measurement": "solvation free energy, 298 K", "setting": "in CCCCCCCCC=CCCCCCCCC(=O)OCC(COC(=O)CCCCCCCC=CCCCCCCCC)OC(=O)CCCCCCCC=CCCCCCCCC", "value": -11.6, "unit": "kcal/mol"}, {"measurement": "solvation free energy, 298 K", "setting": "in CCCCCCCCCCO", "value": -13.4, "unit": "kcal/mol"}, {"measurement": "solvation free energy, 298 K", "setting": "in CCCCCCCCO", "value": -13.5, "unit": "kcal/mol"}, {"measurement": "solvation free energy, 298 K", "setting": "in CCCCCCO", "value": -13.6, "unit": "kcal/mol"}, {"measurement": "solvation free energy, 298 K", "setting": "in CCCCOCCCC", "value": -13.1, "unit": "kcal/mol"}, {"measurement": "solvation free energy, 298 K", "setting": "in CCOCC", "value": -13.5, "unit": "kcal/mol"}, {"measurement": "solvation free energy, 298 K", "setting": "in O", "value": -2.76, "unit": "kcal/mol"}]}
{"compound": "COc1c(Cl)ccc(Cl)c1C(=O)O", "values": [{"measurement": "solvation free energy, 298 K", "setting": "in O", "value": -9.86, "unit": "kcal/mol"}]}
